According to patent publication US11053204B2, “Pyrimidinyloxy benzene derivatives as herbicides” (FMC Corporation, priority 2015, dated 2021):

How the values were obtained:
Assay type in all cases: in vivo
[1] = test system: rice (Oryza sativa); assay: Test B flooded paddy test, plant response rating; conditions: 250 g ai/ha; Flood; scale of 0 to 100 where 0 is no effect and 100 is complete control; 13 to 15 days
Procedure, shortened: (§1)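 Ratings were visual and made relative to untreated controls after 13 to 15 greenhouse days.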

[2] = test system: ducksalad (Heteranthera limosa); assay: Test B flooded paddy test, plant response rating; conditions: 250 g ai/ha; Flood; scale of 0 to 100 where 0 is no effect and 100 is complete control; 13 to 15 days
Procedure, shortened: as §1

[3] = test system: sedge, umbrella (small-flower umbrella sedge, Cyperus difformis); assay: Test B flooded paddy test, plant response rating; conditions: 250 g ai/ha; Flood; scale of 0 to 100 where 0 is no effect and 100 is complete control; 13 to 15 days
Procedure, shortened: as §1

[4] = test system: barnyardgrass (Echinochloa crus-galli); assay: Test B flooded paddy test, plant response rating; conditions: 250 g ai/ha; Flood; scale of 0 to 100 where 0 is no effect and 100 is complete control; 13 to 15 days
Procedure, shortened: as §1

[5] = test system: ragweed (common ragweed, Ambrosia elatior); assay: Test A preemergence, visual injury rating
Procedure, shortened: (§2)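 Injury scores run from 0, no effect, to 100, complete control, judged by eye against untreated plants roughly 10 days after treatment. Chemicals carried a surfactant in a non-phytotoxic solvent and went onto loam–sand soil preemergence or onto one- to two-leaf seedlings postemergence.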

[6] = test system: pigweed (Amaranthus retroflexus); assay: Test A preemergence, visual injury rating
Procedure, shortened: as §2

[7] = test system: giant foxtail (Setaria faberii); assay: Test A preemergence, visual injury rating
Procedure, shortened: as §2

[8] = test system: kochia (Kochia scoparia); assay: Test A preemergence, visual injury rating
Procedure, shortened: as §2

[9] = test system: Italian ryegrass (Lolium multiflorum); assay: Test A preemergence, visual injury rating
Procedure, shortened: as §2

[10] = test system: barnyardgrass (Echinochloa crus-galli); assay: Test A preemergence, visual injury rating
Procedure, shortened: as §2

[11] = test system: wheat (Triticum aestivum); assay: Test A postemergence, visual injury rating; conditions: 0 to 100 scale, 0 is no effect, 100 is complete control, approximately 10 days
Procedure, shortened: as §2

[12] = test system: ragweed (common ragweed, Ambrosia elatior); assay: Test A postemergence, visual injury rating; conditions: 0 to 100 scale, 0 is no effect, 100 is complete control, approximately 10 days
Procedure, shortened: as §2

[13] = test system: blackgrass (Alopecurus myosuroides); assay: Test A postemergence, visual injury rating; conditions: 0 to 100 scale, 0 is no effect, 100 is complete control, approximately 10 days
Procedure, shortened: as §2

[14] = test system: pigweed (Amaranthus retroflexus); assay: Test A postemergence, visual injury rating; conditions: 0 to 100 scale, 0 is no effect, 100 is complete control, approximately 10 days
Procedure, shortened: as §2

[15] = test system: giant foxtail (Setaria faberii); assay: Test A postemergence, visual injury rating; conditions: 0 to 100 scale, 0 is no effect, 100 is complete control, approximately 10 days
Procedure, shortened: as §2

[16] = test system: kochia (Kochia scoparia); assay: Test A postemergence, visual injury rating; conditions: 0 to 100 scale, 0 is no effect, 100 is complete control, approximately 10 days
Procedure, shortened: as §2

[17] = test system: corn (Zea mays); assay: Test A postemergence, visual injury rating; conditions: 0 to 100 scale, 0 is no effect, 100 is complete control, approximately 10 days
Procedure, shortened: as §2

[18] = test system: Italian ryegrass (Lolium multiflorum); assay: Test A postemergence, visual injury rating; conditions: 0 to 100 scale, 0 is no effect, 100 is complete control, approximately 10 days
Procedure, shortened: as §2

[19] = test system: galium (catchweed bedstraw, Galium aparine); assay: Test A postemergence, visual injury rating; conditions: 0 to 100 scale, 0 is no effect, 100 is complete control, approximately 10 days
Procedure, shortened: as §2

[20] = test system: barnyardgrass (Echinochloa crus-galli); assay: Test A postemergence, visual injury rating; conditions: 0 to 100 scale, 0 is no effect, 100 is complete control, approximately 10 days
Procedure, shortened: as §2

[21] = 31 g ai/ha, 0 to 100 scale, 0 no effect, 100 complete control
[22] = 125 g ai/ha, 0 to 100 scale (0 no effect, 100 complete control)

Structure (SMILES) | Plant response rating, Rice [1] | Plant response rating, Ducksalad [2] | Plant response rating, Sedge, Umbrella [3] | Plant response rating, Barnyardgrass [4] | Plant response rating, Ragweed [5, 21] | Plant response rating, Ragweed [5, 22] | Plant response rating, Pigweed [6, 21] | Plant response rating, Pigweed [6, 22] | Plant response rating, Foxtail, Giant [7, 21] | Plant response rating, Foxtail, Giant [7, 22] | Plant response rating, Kochia [8, 21] | Plant response rating, Kochia [8, 22] | Plant response rating, Ryegrass, Italian [9, 21] | Plant response rating, Ryegrass, Italian [9, 22] | Plant response rating, Barnyardgrass [10, 21] | Plant response rating, Barnyardgrass [10, 22] | Wheat plant response rating ([11]; 31 g ai/ha) | Wheat plant response rating ([11]; 125 g ai/ha) | Ragweed plant response rating ([12]; 31 g ai/ha) | Ragweed plant response rating ([12]; 125 g ai/ha) | other results
FC(F)(F)CCCCCc1c(Cl)cccc1Oc1ncc(Cl)cn1 [Compound 124] | 40 | 100 | 100 | 45 | 0 | 0 | 40 | 100 | 60 | 100 | 0 | 10 | 0 | 20 | 10 | 80 | 10 | 10 | 10 | 20 | Blackgrass plant response rating ([13]; 31 g ai/ha): 20; Blackgrass plant response rating ([13]; 125 g ai/ha): 60; Pigweed plant response rating ([14]; 31 g ai/ha): 70; Pigweed plant response rating ([14]; 125 g ai/ha): 100; Foxtail, Giant plant response rating ([15]; 31 g ai/ha): 30; Foxtail, Giant plant response rating ([15]; 125 g ai/ha): 70; Kochia plant response rating ([16]; 31 g ai/ha): 50; Kochia plant response rating ([16]; 125 g ai/ha): 80; Corn plant response rating ([17]; 31 g ai/ha): 10; Corn plant response rating ([17]; 125 g ai/ha): 20; Ryegrass, Italian plant response rating ([18]; 31 g ai/ha): 0; Ryegrass, Italian plant response rating ([18]; 125 g ai/ha): 20; Galium plant response rating ([19]; 31 g ai/ha): 70; Galium plant response rating ([19]; 125 g ai/ha): 90; Barnyardgrass plant response rating ([20]; 31 g ai/ha): 10; Barnyardgrass plant response rating ([20]; 125 g ai/ha): 60
O=C(OCCC(F)(F)F)c1c(Oc2ncc(Cl)cn2)cccc1C(F)(F)F [Compound 113] | 20 | 80 | 90 | 65 | 0 | 0 | 100 | 100 | 60 | 100 | 10 | 60 | 10 | 40 | 0 | 90 | 0 | 20 | 0 | 20 | Blackgrass plant response rating ([13]; 31 g ai/ha): 0; Blackgrass plant response rating ([13]; 125 g ai/ha): 40; Pigweed plant response rating ([14]; 31 g ai/ha): 90; Pigweed plant response rating ([14]; 125 g ai/ha): 100; Foxtail, Giant plant response rating ([15]; 31 g ai/ha): 10; Foxtail, Giant plant response rating ([15]; 125 g ai/ha): 50; Kochia plant response rating ([16]; 31 g ai/ha): 80; Kochia plant response rating ([16]; 125 g ai/ha): 100; Corn plant response rating ([17]; 31 g ai/ha): 10; Corn plant response rating ([17]; 125 g ai/ha): 20; Ryegrass, Italian plant response rating ([18]; 31 g ai/ha): 0; Ryegrass, Italian plant response rating ([18]; 125 g ai/ha): 30; Galium plant response rating ([19]; 31 g ai/ha): 40; Galium plant response rating ([19]; 125 g ai/ha): 80; Barnyardgrass plant response rating ([20]; 31 g ai/ha): 10; Barnyardgrass plant response rating ([20]; 125 g ai/ha): 40
